The nature of series [1]: Microsomal clearance assay (M). The note with it: intrinsic clearance in rat liver microsomes. (In general: Liver microsomes are a subcellular fraction often used to study metabolism.)
Method: The experiments were performed in 96-well glass plates at 37° C. on an automated Tecan EVO platform. Test compounds at a concentration of 10 mM in pure DMSO were diluted 1:1000 in water to 10 μM. […] Reactions were initiated by the addition of 150 μL of a cofactor solution containing 2 mM NADPH.
Series [2] deals with T1, PI 3-kinase gamma (Homo sapiens, UniProt P48736). Nature of the series: TR-FRET Adapta assay, assay E. To be noted: read-out: Assay E PI3Kγ IC50. In kind it is biochemical. For orientation: TR-FRET usually uses a lanthanide donor and a delayed reading to cut background.
The next series deals with Vps34 (Homo sapiens, UniProt Q8NEB9). As to the kind of experiment: Kinase Glo Luminescent Kinase Assay (Kglo), assay C. To be noted: read-out: Assay C VPS34 IC50. It counts as biochemical. On the technique in general: Kinase-Glo reads ATP consumption through a luciferase reaction.
The target of series [3] is T2, PI 3-kinase delta (Homo sapiens, UniProt O00329). As to the kind of experiment: TR-FRET Adapta assay, assay F. To be noted: read-out: Assay F PI3Kδ IC50.
Target sequence in this assay (O00329 whole entry): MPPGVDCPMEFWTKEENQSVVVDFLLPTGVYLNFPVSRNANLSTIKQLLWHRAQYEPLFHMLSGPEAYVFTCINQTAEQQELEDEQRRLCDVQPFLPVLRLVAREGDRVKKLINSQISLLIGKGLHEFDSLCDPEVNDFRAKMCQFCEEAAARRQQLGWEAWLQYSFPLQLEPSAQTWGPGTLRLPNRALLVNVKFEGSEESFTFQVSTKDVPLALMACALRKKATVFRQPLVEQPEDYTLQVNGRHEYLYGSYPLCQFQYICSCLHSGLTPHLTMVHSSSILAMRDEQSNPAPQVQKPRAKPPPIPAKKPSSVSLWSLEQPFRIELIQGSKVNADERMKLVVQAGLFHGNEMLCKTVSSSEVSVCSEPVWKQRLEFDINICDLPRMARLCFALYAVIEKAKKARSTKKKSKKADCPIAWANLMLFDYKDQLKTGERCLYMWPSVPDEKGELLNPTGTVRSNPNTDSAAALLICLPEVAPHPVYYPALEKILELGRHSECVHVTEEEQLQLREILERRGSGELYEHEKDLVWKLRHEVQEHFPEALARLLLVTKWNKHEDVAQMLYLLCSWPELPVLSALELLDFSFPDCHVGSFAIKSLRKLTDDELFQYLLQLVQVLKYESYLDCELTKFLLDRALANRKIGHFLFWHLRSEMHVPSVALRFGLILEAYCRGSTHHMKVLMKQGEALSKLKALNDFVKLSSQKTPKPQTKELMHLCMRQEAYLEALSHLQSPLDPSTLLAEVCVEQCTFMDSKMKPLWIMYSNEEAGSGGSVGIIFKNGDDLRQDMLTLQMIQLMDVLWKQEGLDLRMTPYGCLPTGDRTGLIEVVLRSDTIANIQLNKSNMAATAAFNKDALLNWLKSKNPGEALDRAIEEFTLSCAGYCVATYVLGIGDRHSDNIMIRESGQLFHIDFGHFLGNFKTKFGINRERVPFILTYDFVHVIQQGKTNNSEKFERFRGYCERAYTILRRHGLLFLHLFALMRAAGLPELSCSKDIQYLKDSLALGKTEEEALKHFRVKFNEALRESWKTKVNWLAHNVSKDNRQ
Target sequence in this assay (P27986 461-568 partner): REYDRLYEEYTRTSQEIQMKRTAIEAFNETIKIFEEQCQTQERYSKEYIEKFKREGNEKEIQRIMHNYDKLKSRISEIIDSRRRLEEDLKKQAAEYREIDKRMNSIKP
Another series has as its target mTOR (Homo sapiens, UniProt P42345). Nature of the series: Lanthascreen kinase binding assay, assay G. The note with it: read-out: Assay G mTOR IC50.
Series [4] concerns IL-8-induced neutrophil shape change in human whole blood. As to the kind of experiment: Whole blood neutrophil shape change assay (L). It counts as cell-based. To be noted: IL-8, human whole blood, read-out: Assay L WBSC IC50.
The target in series [5] is T3, PI 3-kinase beta (Homo sapiens, UniProt P42338). As to the kind of experiment: Cellular assay I1, p-Akt (S473) in Rat-1 cells, Surefire format. In kind it is cell-based. The note with it: non-asterisked data: version I1 (Surefire format), Rat-1 cells; read-out: Assay I PI3Kβ IC50.
Target sequence in this assay (P42338 whole entry): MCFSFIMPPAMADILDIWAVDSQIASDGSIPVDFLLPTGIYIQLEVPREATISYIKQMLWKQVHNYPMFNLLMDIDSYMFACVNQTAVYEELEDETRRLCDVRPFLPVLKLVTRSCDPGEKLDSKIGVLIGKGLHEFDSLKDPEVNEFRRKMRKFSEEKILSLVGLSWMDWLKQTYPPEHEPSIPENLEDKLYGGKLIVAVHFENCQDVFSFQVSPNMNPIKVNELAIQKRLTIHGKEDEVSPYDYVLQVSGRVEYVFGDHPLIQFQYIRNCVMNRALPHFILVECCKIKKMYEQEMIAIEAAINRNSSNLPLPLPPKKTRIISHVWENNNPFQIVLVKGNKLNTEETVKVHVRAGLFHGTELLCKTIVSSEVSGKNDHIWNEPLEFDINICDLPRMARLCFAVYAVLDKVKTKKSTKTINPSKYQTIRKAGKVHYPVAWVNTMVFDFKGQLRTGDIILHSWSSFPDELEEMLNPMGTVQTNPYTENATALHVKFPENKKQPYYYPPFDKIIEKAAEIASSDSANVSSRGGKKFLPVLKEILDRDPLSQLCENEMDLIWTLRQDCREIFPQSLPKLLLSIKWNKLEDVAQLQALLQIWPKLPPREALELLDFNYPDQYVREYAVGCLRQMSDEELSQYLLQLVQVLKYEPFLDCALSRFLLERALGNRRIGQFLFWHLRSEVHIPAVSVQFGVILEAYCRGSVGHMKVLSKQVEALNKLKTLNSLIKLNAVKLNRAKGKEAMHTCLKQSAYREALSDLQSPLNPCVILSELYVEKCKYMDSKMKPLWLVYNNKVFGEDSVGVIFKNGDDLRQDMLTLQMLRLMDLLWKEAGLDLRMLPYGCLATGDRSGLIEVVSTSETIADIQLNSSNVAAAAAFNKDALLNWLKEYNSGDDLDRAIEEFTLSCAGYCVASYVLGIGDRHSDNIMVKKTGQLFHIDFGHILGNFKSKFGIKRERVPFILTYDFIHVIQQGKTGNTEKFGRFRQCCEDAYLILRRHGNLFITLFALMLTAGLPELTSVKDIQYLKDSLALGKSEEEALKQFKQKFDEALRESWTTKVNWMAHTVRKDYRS
Target sequence in this assay (Q63787 whole entry partner): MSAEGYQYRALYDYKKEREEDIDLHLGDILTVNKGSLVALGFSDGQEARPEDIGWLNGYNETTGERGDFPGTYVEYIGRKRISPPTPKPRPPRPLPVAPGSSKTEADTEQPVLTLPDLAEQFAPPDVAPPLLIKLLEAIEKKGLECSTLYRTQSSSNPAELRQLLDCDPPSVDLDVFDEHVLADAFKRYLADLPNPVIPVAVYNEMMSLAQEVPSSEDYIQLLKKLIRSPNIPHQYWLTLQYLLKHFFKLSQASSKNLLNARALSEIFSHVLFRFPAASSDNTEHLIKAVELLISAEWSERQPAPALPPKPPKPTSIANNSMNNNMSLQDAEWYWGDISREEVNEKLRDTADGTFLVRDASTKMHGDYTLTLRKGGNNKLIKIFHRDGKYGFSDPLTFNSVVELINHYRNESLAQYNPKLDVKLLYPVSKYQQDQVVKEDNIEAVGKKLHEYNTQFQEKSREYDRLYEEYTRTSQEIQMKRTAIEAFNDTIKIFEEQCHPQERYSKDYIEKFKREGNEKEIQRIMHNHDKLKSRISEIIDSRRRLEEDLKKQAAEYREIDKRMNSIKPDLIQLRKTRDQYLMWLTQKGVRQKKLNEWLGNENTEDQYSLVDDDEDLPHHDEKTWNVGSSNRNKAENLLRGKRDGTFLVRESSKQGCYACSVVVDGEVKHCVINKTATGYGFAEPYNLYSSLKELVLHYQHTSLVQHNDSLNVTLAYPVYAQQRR
Series [6] has as its target T4, PI 3-kinase alpha (Homo sapiens, UniProt P42336). Nature of the series: Kinase Glo Luminescent Kinase Assay (Kglo), assay A. In kind it is biochemical. To be noted: read-out: Assay A PI3Kα IC50.
Another series has as its target PI 4-kinase beta (Homo sapiens, UniProt Q9UBF8). As to the kind of experiment: Kinase Glo Luminescent Kinase Assay (Kglo), assay D. It counts as biochemical. The note with it: read-out: Assay D PI4Kβ IC50.
Series [7] addresses T3, PI 3-kinase beta. As to the kind of experiment: Kinase Glo Luminescent Kinase Assay (Kglo), assay B. In kind it is biochemical. The note with it: read-out: Assay B PI3Kβ IC50.
Target sequence in this assay (P42338 whole entry): as the sequence (P42338 whole entry) above
Target sequence in this assay (P27986 461-568 partner): as the sequence (P27986 461-568 partner) above
The target of series [8] is T4, PI 3-kinase alpha. Nature of the series: Cellular assay H1, p-Akt (S473) in Rat-1 cells, Surefire format. It counts as cell-based. To be noted: non-asterisked data: version H1 (Surefire format), Rat-1 cells; read-out: Assay H PI3Kα IC50.
For series [9], the target named is T2, PI 3-kinase delta. Nature of the series: Cellular assay J1, p-Akt (S473) in Rat-1 cells, Surefire format. It counts as cell-based. To be noted: non-asterisked data: version J1 (Surefire format), Rat-1 cells; read-out: Assay J PI3Kδ IC50.
Target sequence in this assay (O00329 whole entry): as the sequence (O00329 whole entry) above
Target sequence in this assay (Q63787 whole entry partner): as the sequence (Q63787 whole entry partner) above
Series [10] has as its target T1, PI 3-kinase gamma. As to the kind of experiment: Cellular U937 AKT assay K1 (MSD). In kind it is cell-based. To be noted: U937 cells, K1 format; read-out: Assay K1 PI3Kγ IC50.

The results in this text go back to patent US10004732B2 (Novartis AG, priority 2014, dated 2018).

As a reminder, the IC50 is the concentration that gives 50% inhibition.

Structures can show the parent of a compound that is named as a salt. Where two headings read alike, the source gives them in different places. Some results are limits rather than exact numbers.

Sequence of PI 4-kinase beta (Q9UBF8 whole entry): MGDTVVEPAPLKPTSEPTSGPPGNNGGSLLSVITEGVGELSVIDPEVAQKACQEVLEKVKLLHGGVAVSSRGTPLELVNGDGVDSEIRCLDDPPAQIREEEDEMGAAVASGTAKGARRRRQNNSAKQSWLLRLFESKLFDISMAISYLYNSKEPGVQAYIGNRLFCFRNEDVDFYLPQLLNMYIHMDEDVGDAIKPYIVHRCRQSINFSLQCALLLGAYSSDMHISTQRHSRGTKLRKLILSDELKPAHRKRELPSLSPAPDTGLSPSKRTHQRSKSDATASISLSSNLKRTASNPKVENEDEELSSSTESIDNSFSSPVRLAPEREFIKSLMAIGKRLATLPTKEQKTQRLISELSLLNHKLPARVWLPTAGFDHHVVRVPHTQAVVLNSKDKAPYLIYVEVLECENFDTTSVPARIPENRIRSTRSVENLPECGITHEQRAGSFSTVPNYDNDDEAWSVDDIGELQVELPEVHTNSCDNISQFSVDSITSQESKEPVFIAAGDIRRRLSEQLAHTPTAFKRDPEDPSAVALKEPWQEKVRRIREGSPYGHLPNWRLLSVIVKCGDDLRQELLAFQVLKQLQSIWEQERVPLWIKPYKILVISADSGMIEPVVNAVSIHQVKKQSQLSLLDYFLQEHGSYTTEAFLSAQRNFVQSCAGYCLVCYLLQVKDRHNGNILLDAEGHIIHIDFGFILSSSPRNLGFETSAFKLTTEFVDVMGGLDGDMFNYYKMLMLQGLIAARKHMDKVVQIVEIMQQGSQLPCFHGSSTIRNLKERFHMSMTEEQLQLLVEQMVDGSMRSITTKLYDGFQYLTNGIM
Sequence of Vps34 (Q8NEB9 whole entry, species assumed): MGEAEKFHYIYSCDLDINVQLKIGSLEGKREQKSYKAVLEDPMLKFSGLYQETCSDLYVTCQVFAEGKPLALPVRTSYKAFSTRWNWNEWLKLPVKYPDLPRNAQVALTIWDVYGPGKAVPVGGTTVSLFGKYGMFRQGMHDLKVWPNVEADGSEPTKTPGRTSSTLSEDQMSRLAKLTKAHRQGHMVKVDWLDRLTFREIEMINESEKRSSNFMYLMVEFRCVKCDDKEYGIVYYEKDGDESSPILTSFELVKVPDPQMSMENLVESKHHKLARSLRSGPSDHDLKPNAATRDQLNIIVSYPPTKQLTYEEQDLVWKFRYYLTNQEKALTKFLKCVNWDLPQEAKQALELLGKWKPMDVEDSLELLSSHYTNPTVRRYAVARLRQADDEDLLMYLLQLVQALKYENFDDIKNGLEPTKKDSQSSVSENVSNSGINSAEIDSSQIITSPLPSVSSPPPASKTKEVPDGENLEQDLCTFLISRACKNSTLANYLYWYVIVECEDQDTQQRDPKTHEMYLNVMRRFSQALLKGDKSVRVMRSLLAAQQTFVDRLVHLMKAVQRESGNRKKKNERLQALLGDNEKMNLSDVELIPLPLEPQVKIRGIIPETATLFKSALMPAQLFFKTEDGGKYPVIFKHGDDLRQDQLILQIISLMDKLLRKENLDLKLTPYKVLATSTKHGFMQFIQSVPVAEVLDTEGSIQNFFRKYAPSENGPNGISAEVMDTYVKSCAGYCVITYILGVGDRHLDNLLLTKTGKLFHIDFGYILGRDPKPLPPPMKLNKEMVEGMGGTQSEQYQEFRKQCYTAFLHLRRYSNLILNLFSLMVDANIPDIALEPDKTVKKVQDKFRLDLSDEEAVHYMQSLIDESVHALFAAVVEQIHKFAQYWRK
Method for mTOR: Lanthascreen™ Kinase Binding Assay for mTOR (G)
Binding of an inhibitor to the kinase competes for binding with the tracer, resulting in a loss of FRET.
50 nL of compound dilutions were dispensed onto white 384-well small volume polystyrene plate.

As to `Cc1ccc(S(=O)(=O)N[C@H]2C[C@H](O)C2)cc1-c1cnc(N)c(-n2cncn2)n1` [Example 71a, 3-(5-Amino-6-(1H-1,2,4-triazol-1-yl)pyrazin-2-yl)-N-((1r,3r)-3-hydroxycyclobutyl)-4-methylbenzenesulfonamide], in [1], the “Assay M RLM CI(int)” value stood at 18 µL/min/mg. The IC50 on PI 3-kinase gamma [2] was 13 nM; on Vps34 it was more than 10000 nM; at PI 3-kinase delta [3], 1000 nM; on mTOR, more than 10000 nM; in series [4], 763 nM; at PI 3-kinase beta [5], 8020 nM. Further, the IC50 on PI 3-kinase alpha [6] was 330 nM; on PI 4-kinase beta, 2800 nM; at PI 3-kinase beta [7], 1100 nM; on PI 3-kinase alpha [8] it was 3060 nM; at PI 3-kinase delta [9] it was 3650 nM.

Take `Cc1ccc(S(=O)(=O)N[C@H]2C[C@@H](O)C2)cc1-c1cnc(N)c(-n2cncn2)n1` [Example 71b, 3-(5-amino-6-(1H-1,2,4-triazol-1-yl)pyrazin-2-yl)-N-((1s,3s)-3-hydroxycyclobutyl)-4-methylbenzenesulfonamide]: the “Assay M RLM CI(int)” value in series [1] came out at 26 µL/min/mg. Moreover, the half-inhibitory concentration (IC50) is 21 nM on PI 3-kinase gamma [2]; more than 10000 nM on Vps34; 1300 nM on PI 3-kinase delta [3]; more than 10000 nM on mTOR; 1620 nM in [4]; more than 10000 nM on PI 3-kinase beta [5]. Besides, the concentration for half-maximal inhibition (IC50) at PI 3-kinase alpha [6] is 760 nM; on PI 4-kinase beta it was 4600 nM; at PI 3-kinase beta [7], 1900 nM; at PI 3-kinase alpha [8] it was 6910 nM; at PI 3-kinase delta [9] it was 5860 nM.

`CCn1ncc(-c2nc(-c3cc(S(=O)(=O)NCC(C)(C)O)ccc3C)cnc2N)n1` [Example 82, 3-(5-Amino-6-(2-ethyl-2H-1,2,3-triazol-4-yl)pyrazin-2-yl)-N-(2-hydroxy-2-methylpropyl)-4-methylbenzenesulfonamide]: the “Assay M RLM CI(int)” value in series [1] is 25 µL/min/mg. Moreover, the IC50 on PI 3-kinase gamma [2] was 41 nM; at Vps34, more than 10000 nM; at PI 3-kinase delta [3], 540 nM; on mTOR, more than 10000 nM; in series [4] (Homo sapiens, Neutrophil), 825 nM; on PI 3-kinase beta [5], 2980 nM. Also, the concentration for half-maximal inhibition (IC50) was 180 nM at PI 3-kinase alpha [6]; more than 10000 nM at PI 4-kinase beta; 5500 nM at PI 3-kinase beta [7]; 860 nM on PI 3-kinase alpha [8]; 610 nM at PI 3-kinase delta [9].

As for `Cc1ccc(S(=O)(=O)NCC(C)(C)O)cc1-c1cnc(N)c(-c2cnn(CC(F)(F)F)n2)n1` [Example 84, 3-(5-Amino-6-(2-(2,2,2-trifluoroethyl)-2H-1,2,3-triazol-4-yl)pyrazin-2-yl)-N-(2-hydroxy-2-methylpropyl)-4-methyl benzenesulfonamide], the “Assay M RLM CI(int)” value in [1] was found to be 64 µL/min/mg. Also, the IC50 at PI 3-kinase gamma [2] was 42 nM; on Vps34 it was more than 10000 nM; at PI 3-kinase delta [3] it was 210 nM; on mTOR, more than 10000 nM; in [4] (Homo sapiens, Neutrophil), 1010 nM; on PI 3-kinase beta [5], more than 3000 nM. The IC50 at PI 3-kinase alpha [6] was 120 nM; at PI 4-kinase beta, 7050 nM; on PI 3-kinase beta [7], 2300 nM; on PI 3-kinase alpha [8] it was 450 nM; at PI 3-kinase delta [9], 440 nM.

Take `CC(C)(O)CNS(=O)(=O)c1cccc(-c2cnc(N)c(-n3cncn3)n2)c1` [Example 123, 3-(5-Amino-6-(1H-1,2,4-triazol-1-yl)pyrazin-2-yl)-N-(2-hydroxy-2-methylpropyl)benzenesulfonamide]: in series [1], the “Assay M RLM CI(int)” value was 62 µL/min/mg. Moreover, the 50% inhibitory concentration (IC50) at PI 3-kinase gamma [2] was 2100 nM; on Vps34, more than 10000 nM; on PI 3-kinase delta [3], 4700 nM; at mTOR, 9000 nM; in series [4] (Homo sapiens, Neutrophil), 85100 nM; at PI 3-kinase beta [5], more than 10000 nM. Besides, the half-inhibitory concentration (IC50) at PI 3-kinase alpha [6] is 2900 nM; on PI 4-kinase beta it was 2500 nM; at PI 3-kinase beta [7], 5500 nM; on PI 3-kinase alpha [8] it was more than 10000 nM; at PI 3-kinase delta [9], 3630 nM.

In the case of `Cc1ccc(S(=O)(=O)N2CCCC(F)(F)C2)cc1-c1cnc(N)c(-n2cncn2)n1` [Example 127.1], the “Assay M RLM CI(int)” value in [1] amounted to 907 µL/min/mg. Also, the IC50 at PI 3-kinase gamma [2] is 11 nM; at Vps34, more than 10000 nM; on PI 3-kinase delta [3], 560 nM; on mTOR, 1100 nM; in series [4] (Homo sapiens, Neutrophil), 2470 nM; on PI 3-kinase beta [5] it was more than 10000 nM. Further, the IC50 on PI 3-kinase alpha [6] was determined as 290 nM; on PI 4-kinase beta, 1500 nM; on PI 3-kinase beta [7], 1200 nM; on PI 3-kinase alpha [8] it was 1570 nM; at PI 3-kinase delta [9], 1140 nM.

With `Cc1ccc(S(=O)(=O)NC[C@H]2CCCO2)cc1-c1cnc(N)c(-n2cncn2)n1` [Example 127.14], the IC50 was 645 nM at PI 3-kinase gamma [10]; 69 nM at PI 3-kinase gamma [2]; more than 10000 nM on Vps34; 900 nM on PI 3-kinase delta [3]; 9000 nM at mTOR; 1790 nM in series [4] (Homo sapiens, Neutrophil). Besides, the IC50 at PI 3-kinase alpha [6] was found to be 920 nM; on PI 4-kinase beta, 8450 nM; on PI 3-kinase beta [7], 2600 nM.

Take `Cc1ccc(S(=O)(=O)NCC2CCCOC2)cc1-c1cnc(N)c(-n2cncn2)n1` (stereo not drawn) [Example 127.19]: the IC50 on PI 3-kinase gamma [10] was 153 nM; at PI 3-kinase gamma [2], 61 nM; at Vps34 it was more than 10000 nM; at PI 3-kinase delta [3], 620 nM; on mTOR, more than 10000 nM; in [4] (Homo sapiens, Neutrophil), 1620 nM. Moreover, the IC50 on PI 3-kinase alpha [6] came to 260 nM; at PI 4-kinase beta, 3900 nM; on PI 3-kinase beta [7], 1300 nM.

As to `Cc1ccc(S(=O)(=O)NC[C@H]2CCOC2)cc1-c1cnc(N)c(-n2cncn2)n1` [Example 127.27], the concentration for half-maximal inhibition (IC50) on PI 3-kinase gamma [10] is 242 nM; on PI 3-kinase gamma [2] it was 26 nM; on Vps34, more than 10000 nM; at PI 3-kinase delta [3], 790 nM; at mTOR it was 9600 nM; in series [4] (Homo sapiens, Neutrophil), 1090 nM. Also, the IC50 at PI 3-kinase alpha [6] amounted to 200 nM; at PI 4-kinase beta, 8700 nM; on PI 3-kinase beta [7] it was 1800 nM.

`Cc1ccc(S(=O)(=O)NCCC2(O)CCCC2)cc1-c1cnc(N)c(-n2cncn2)n1` [Example 127.36]: the IC50 is 126 nM at PI 3-kinase gamma [10]; 24 nM at PI 3-kinase gamma [2]; more than 10000 nM at Vps34; 790 nM at PI 3-kinase delta [3]; 7600 nM at mTOR; 3850 nM in series [4] (Homo sapiens, Neutrophil). Besides, the 50% inhibitory concentration (IC50) at PI 3-kinase alpha [6] was found to be 190 nM; at PI 4-kinase beta, 5300 nM; at PI 3-kinase beta [7], 1900 nM.

Consider `Cc1ccc(S(=O)(=O)NCC2(C(N)=O)CC2)cc1-c1cnc(N)c(-n2cncn2)n1` [Example 127.56], for which the “Assay M RLM CI(int)” value in [1] is 25 µL/min/mg. In addition, the half-inhibitory concentration (IC50) at PI 3-kinase gamma [2] is 73 nM; on Vps34, more than 10000 nM; on PI 3-kinase delta [3] it was 1400 nM; on mTOR, 7400 nM; in series [4] (Homo sapiens, Neutrophil), 715 nM; at PI 3-kinase beta [5], 3560 nM. The IC50 at PI 3-kinase alpha [6] was 420 nM; on PI 4-kinase beta it was more than 10000 nM; at PI 3-kinase beta [7], 1200 nM; at PI 3-kinase alpha [8] it was 9610 nM; at PI 3-kinase delta [9] it was 6000 nM.

Consider `Cc1ccc(S(=O)(=O)NC[C@@H]2CCNC2)cc1-c1cnc(N)c(-n2cncn2)n1` [Example 127.57, (R)-3-(5-amino-6-(1H-1,2,4-triazol-1-yl)pyrazin-2-yl)-4-methyl-N-(pyrrolidin-3-ylmethyl)benzenesulfonamide trifluoroacetic acid salt], for which the “Assay M RLM CI(int)” value in series [1] turned out to be 21 µL/min/mg. Moreover, the concentration for half-maximal inhibition (IC50) on PI 3-kinase gamma [2] is 50 nM; on Vps34, more than 10000 nM; at PI 3-kinase delta [3], 760 nM; at mTOR, 5000 nM; in [4] (Homo sapiens, Neutrophil), 13800 nM; on PI 3-kinase beta [5], more than 10000 nM. For the same compound, the 50% inhibitory concentration (IC50) at PI 3-kinase alpha [6] was 1400 nM; at PI 4-kinase beta it was 5900 nM; at PI 3-kinase beta [7] it was 730 nM; at PI 3-kinase alpha [8] it was more than 10000 nM; at PI 3-kinase delta [9], more than 10000 nM.

In the case of `COCCCNS(=O)(=O)c1ccc(C)c(-c2cnc(N)c(-c3ccnc(C)c3)n2)c1` [Example 129.11, 3-(5-amino-6-(2-methylpyridin-4-yl)pyrazin-2-yl)-N-(3-methoxypropyl)-4-methylbenzenesulfonamide], the “Assay M RLM CI(int)” value in series [1] is 105 µL/min/mg. Further, the IC50 was 173 nM on PI 3-kinase gamma [2]; more than 9100 nM at Vps34; 790 nM on PI 3-kinase delta [3]; more than 9100 nM on mTOR; 5680 nM in series [4] (Homo sapiens, Neutrophil); 8380 nM on PI 3-kinase beta [5]. Moreover, the IC50 at PI 3-kinase alpha [6] was 640 nM; on PI 4-kinase beta it was more than 9100 nM; at PI 3-kinase beta [7], more than 9100 nM; at PI 3-kinase alpha [8], 2730 nM; at PI 3-kinase delta [9], 3330 nM.
